In PubChem BioAssay (NCI):
Several values for one entry are separate records, joined by “and”; a condition that tells them apart may be missing. Equal values may be shown once.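 How tested: cells in 96-well plates exposed to compound for 48 hours at five concentrations. GI50 marks 50% less growth. Definition used: TGI = concentration required for complete inhibition of growth.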

Legend:
Test in all cases: NCI anticancer screen, dose series, 48 h
[1] = system: SNB-19 CNS
[2] = system: M19-MEL melanoma
[3] = system: SF-295 CNS
[4] = system: CAKI-1 renal
[5] = system: SF-539 CNS
[6] = system: NCI-H460 lung
[7] = system: HOP-18 NSCLC
[8] = system: RPMI-8226 leukemia
[9] = system: MOLT-4 leukemia
[10] = system: SK-OV-3 ovarian
[11] = system: XF 498 CNS

Question: For `C(/C=C/N1CCCC1)=C\c1nc(N2CCCC2)c2ccccc2n1`, which TGI [1] is on record?
Answer: Its TGI is 36.3 µM.

Question: What about the TGI [2] of the same compound?
Answer: The TGI was 32.2 µM.

Question: And the TGI [3]?
Answer: The TGI was 35.4 µM.

Question: And the TGI [4]?
Answer: Its TGI is 35.3 µM.

Question: What about the TGI [5] of the same compound?
Answer: The TGI was 32.8 µM.

Question: And the TGI [6]?
Answer: The TGI was 33.6 µM.

Question: And the TGI [7]?
Answer: Its TGI is 30.3 µM.

Question: What about the TGI [8] of the same compound?
Answer: The TGI was 42.3 µM.

Question: And the TGI [9]?
Answer: The TGI was 52.3 µM.

Question: What about the TGI [10] of the same compound?
Answer: Its TGI is 36.3 µM.

Question: With `COC(=O)Cc1cc(=O)oc2c1C(=O)CCC2` as the compound, how does the TGI [1] read?
Answer: Its TGI is > 100 µM.

Question: And the TGI [2]?
Answer: Its TGI is > 100 µM.

Question: And the TGI [3]?
Answer: Its TGI is > 100 µM.

Question: And the TGI [11]?
Answer: Its TGI is > 100 µM.

Question: What about the TGI [4] of the same compound?
Answer: Its TGI is > 100 µM.

Question: And the TGI [5]?
Answer: The TGI was > 100 µM.

Question: What about the TGI [6] of the same compound?
Answer: Its TGI is > 100 µM.

Question: What about the TGI [8] of the same compound?
Answer: Its TGI is > 100 µM.

Question: And the TGI [9]?
Answer: Its TGI is > 100 µM.

Question: What about the TGI [10] of the same compound?
Answer: The TGI was > 100 µM.

Question: What does the source list for `COC(=O)C1=C(C(=O)OC)C(C(=O)OC)C(C(=O)OC)C(C(=O)OC)(C(=O)OC)C(C(=O)OC)=C1C(=O)OC` (stereo not drawn)?
Answer: TGI [1]: 33 µM; TGI [2]: 25.6 µM; TGI [3]: 39.9 µM; TGI [11]: 25.3 µM; TGI [4]: 36.7 µM; TGI [5]: 36.7 µM; TGI [6]: 37.4 µM; TGI [7]: 31 µM; TGI [8]: 10.5 µM; TGI [9]: 6.71 µM; TGI [10]: 55.6 µM

Question: What does the source list for `O=C1[C@H]2ON(c3ccccc3)C(c3cccc([N+](=O)[O-])c3)[C@H]2C(=O)N1c1ccc(Cc2ccc(N3C(=O)[C@@H]4ON(c5ccccc5)C(c5cccc([N+](=O)[O-])c5)[C@@H]4C3=O)cc2)cc1` (stereo partly drawn)?
Answer: TGI [1]: > 100 µM; TGI [2]: > 100 µM; TGI [3]: > 100 µM; TGI [4]: > 100 µM; TGI [5]: > 100 µM; TGI [6]: > 100 µM; TGI [7]: > 100 µM; TGI [8]: > 100 µM; TGI [9]: > 100 µM; TGI [10]: > 100 µM

Question: Which results are given for `COc1cc2c3c(c1OC)/C(=N/OS(=O)(=O)c1ccc(C)cc1)CC3N(S(=O)(=O)c1ccc(C)cc1)CC2` (stereo not drawn)?
Answer: TGI [1]: > 100 µM; TGI [2]: > 100 µM; TGI [3]: > 100 µM; TGI [11]: > 100 µM; TGI [4]: > 100 µM; TGI [5]: > 100 µM; TGI [6]: > 100 µM; TGI [7]: > 100 µM; TGI [8]: > 100 µM; TGI [10]: > 100 µM

Question: `CCOc1ccccc1NC(=O)CCC(=O)NN` was tested. Which TGI [1] did it give?
Answer: Its TGI is > 100 µM.

Question: What about the TGI [3] of the same compound?
Answer: Its TGI is > 100 µM.

Question: What about the TGI [11] of the same compound?
Answer: Its TGI is > 100 µM.

Question: And the TGI [4]?
Answer: Its TGI is > 100 µM.

Question: What about the TGI [5] of the same compound?
Answer: The TGI was > 100 µM.

Question: And the TGI [6]?
Answer: The TGI was > 100 µM.

Question: What about the TGI [8] of the same compound?
Answer: The TGI was > 100 µM.

Question: And the TGI [9]?
Answer: Its TGI is > 100 µM.

Question: And the TGI [10]?
Answer: Its TGI is > 100 µM.

Question: What does the source list for `COC(=O)C1=C(C(=O)OC)N(C(C)C)[C@H]2C(C(=O)OC)=C(C(=O)OC)N(C(C)C)[C@@H]12`?
Answer: TGI [1]: > 100 µM; TGI [2]: > 100 µM; TGI [3]: > 100 µM; TGI [11]: > 100 µM; TGI [4]: > 100 µM; TGI [5]: > 100 µM; TGI [6]: > 100 µM; TGI [7]: > 100 µM; TGI [8]: > 100 µM; TGI [9]: > 100 µM; TGI [10]: > 100 µM

Question: What does the source list for `O=C1OC(c2ccc(Cl)c3ccccc23)c2ccccc21` (stereo not drawn)?
Answer: TGI [1]: > 100 µM; TGI [2]: > 100 µM; TGI [3]: > 100 µM; TGI [11]: > 100 µM; TGI [4]: > 100 µM; TGI [5]: > 100 µM; TGI [6]: > 100 µM; TGI [7]: > 100 µM; TGI [8]: > 100 µM; TGI [9]: > 100 µM; TGI [10]: > 100 µM

Question: For `COc1cc2c(c(OC)c1OC)-c1ccc(SC)c(=O)cc1[C@@H](NC(=O)c1ccc(F)cc1)CC2`, which GI50 [1] is on record?
Answer: The GI50 was 0.0287 µM and < 0.01 µM.

Question: And the GI50 [2]?
Answer: Its GI50 is < 0.01 µM.

Question: What about the TGI [2] of the same compound?
Answer: Its TGI is > 100 µM.

Question: And the GI50 [3]?
Answer: The GI50 was < 0.01 µM.

Question: And the TGI [11]?
Answer: The TGI was 0.0844 µM.

Question: And the GI50 [5]?
Answer: The GI50 was < 0.01 µM.

Question: What about the TGI [5] of the same compound?
Answer: Its TGI is 0.0696 µM and < 0.01 µM.

Question: What about the GI50 [9] of the same compound?
Answer: Its GI50 is < 0.01 µM.

Question: What about the TGI [9] of the same compound?
Answer: Its TGI is > 100 µM.

Question: And the GI50 [10]?
Answer: The GI50 was < 0.01 µM.

Question: And the TGI [10]?
Answer: Its TGI is 0.072 µM and < 0.01 µM.

Question: What does the source list for `COc1cc(/C=C2/C(=O)N(C(=O)c3ccccc3O)N=C2C)ccc1O`?
Answer: TGI [1]: > 100 µM; TGI [2]: > 100 µM; TGI [3]: > 100 µM; TGI [11]: 79.6 µM; TGI [4]: > 25.5 µM; TGI [6]: > 100 µM; TGI [8]: > 100 µM; TGI [9]: > 100 µM; TGI [10]: > 86.5 µM

Question: Which results are given for `C=C1C(=O)C23CC1CCC2C12CO[C@@]3(O)[C@@H](O)C1C(C)(C)C=CC2=O` (stereo partly drawn)?
Answer: GI50 [1]: 20.4 µM; TGI [2]: 1.72 µM; GI50 [3]: 18.1 µM; TGI [3]: 4.79 µM and 32 µM; TGI [11]: 1.42 µM; TGI [4]: 4.13 µM; GI50 [5]: 4.43 µM; TGI [5]: 1.8 µM and 13.4 µM; GI50 [6]: 14.7 µM; TGI [7]: 2.2 µM; TGI [8]: 21.7 µM; GI50 [9]: 2.6 µM; TGI [9]: 2.15 µM and 9.87 µM; GI50 [10]: 26.1 µM; TGI [10]: 13.7 µM and 54.5 µM

Question: With `C/C(N=NC(=S)N1CCCCCC1)=C1\C=CC=CN1O` as the compound, how does the TGI [1] read?
Answer: Its TGI is > 100 µM.

Question: And the TGI [2]?
Answer: The TGI was 59.3 µM.

Question: And the TGI [3]?
Answer: The TGI was > 100 µM.

Question: What about the TGI [11] of the same compound?
Answer: The TGI was > 100 µM.

Question: What about the TGI [4] of the same compound?
Answer: The TGI was > 89.3 µM.

Question: And the TGI [5]?
Answer: Its TGI is 48.2 µM.

Question: What about the TGI [6] of the same compound?
Answer: Its TGI is 31.3 µM.

Question: What about the TGI [7] of the same compound?
Answer: The TGI was > 92.9 µM.

Question: What about the TGI [8] of the same compound?
Answer: Its TGI is 11.1 µM.

Question: And the TGI [9]?
Answer: The TGI was 20.1 µM.

Question: And the TGI [10]?
Answer: Its TGI is 98.2 µM.

Question: Which results are given for `CCOC(=O)c1cc(C(=O)O)c(=O)n2c1[nH]c1ccccc12`?
Answer: TGI [1]: > 100 µM; TGI [2]: > 100 µM; TGI [3]: > 100 µM; TGI [11]: > 100 µM; TGI [4]: > 100 µM; TGI [5]: > 100 µM; TGI [6]: > 100 µM; TGI [7]: > 100 µM; TGI [8]: > 100 µM; TGI [9]: > 100 µM; TGI [10]: > 100 µM

Question: Which TGI [1] does the source give for `CCCC/C=C1\CCC(CN2CCCC2)C1=O` (stereo not drawn) here?
Answer: Its TGI is 48.9 µM.

Question: What about the TGI [2] of the same compound?
Answer: Its TGI is 33.5 µM.

Question: What about the TGI [3] of the same compound?
Answer: Its TGI is 36.4 µM.

Question: And the TGI [11]?
Answer: Its TGI is 29.6 µM.

Question: And the TGI [5]?
Answer: Its TGI is 29.8 µM.

Question: And the TGI [6]?
Answer: Its TGI is 38.2 µM.

Question: What about the TGI [9] of the same compound?
Answer: The TGI was 36.2 µM.

Question: What about the TGI [10] of the same compound?
Answer: Its TGI is 97.1 µM.

Question: Which TGI [1] does the source give for `O=C(NOC(=O)c1ccc([N+](=O)[O-])cc1)c1ccc(Cl)cc1` here?
Answer: The TGI was > 100 µM.

Question: And the TGI [2]?
Answer: The TGI was > 100 µM.

Question: And the TGI [3]?
Answer: The TGI was > 100 µM.

Question: What about the TGI [11] of the same compound?
Answer: The TGI was > 100 µM.

Question: And the TGI [4]?
Answer: Its TGI is > 100 µM.

Question: And the TGI [5]?
Answer: The TGI was > 100 µM.

Question: What about the TGI [6] of the same compound?
Answer: Its TGI is > 100 µM.

Question: What about the TGI [7] of the same compound?
Answer: The TGI was 89.7 µM.

Question: What about the TGI [8] of the same compound?
Answer: Its TGI is > 100 µM.

Question: And the TGI [9]?
Answer: Its TGI is > 100 µM.

Question: What about the TGI [10] of the same compound?
Answer: The TGI was > 100 µM.

Question: Which TGI [1] does the source give for `C=C1c2ccccc2N(S(=O)(=O)c2ccc(C)cc2)C12CCCCC2` here?
Answer: Its TGI is > 100 µM.

Question: And the TGI [2]?
Answer: Its TGI is > 100 µM.

Question: What about the TGI [3] of the same compound?
Answer: Its TGI is > 100 µM.

Question: And the TGI [11]?
Answer: The TGI was > 100 µM.

Question: What about the TGI [5] of the same compound?
Answer: The TGI was > 100 µM.

Question: And the TGI [6]?
Answer: The TGI was > 100 µM.

Question: What about the TGI [7] of the same compound?
Answer: Its TGI is > 100 µM.

Question: And the TGI [8]?
Answer: The TGI was > 100 µM.

Question: What about the TGI [9] of the same compound?
Answer: Its TGI is > 100 µM.

Question: And the TGI [10]?
Answer: Its TGI is > 100 µM.
